Reference: patent US10280166B2, “2-(1H-indazol-3-yl)-3H-imidazo[4,5-B]pyridine and therapeutic uses thereof” (Samumed, LLC, priority 2014, dated 2019)

Legend:
[1] = test system: Wnt activity (SW480 colon carcinoma cells stably expressing the Sp5-Luc reporter gene); experiment: Sp5-Luc reporter gene screening assay for Wnt activity in SW480 cells; type: cell-based; conditions: Homo sapiens, 42 h incubation, luminescence
How it was run: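 SW480 cells stably carrying an Sp5 promoter (eight TCF/LEF sites)-luciferase reporter were plated overnight in 10% FCS medium. BrightGlo luminescence was normalised to DMSO wells, and IC50 was obtained by four-parameter fit.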

[2] = test system: primary human fibroblasts derived from IPF patients (LL29 cells); experiment: Inhibition of fibrosis (αSMA) in TGF-β1 treated primary human fibroblasts from IPF patients; type: cell-based; conditions: Fibroblast, 96 h, TGF-β1 20 ng/mL, 4 days, % αSMA positive cells
From the text: The above synthesized compounds were screened using primary human fibroblasts (derived from IPF patients) treated with TGF-β1 to determine their ability to inhibit the fibrotic process.
Primary human fibroblasts derived from IPF patients (LL29 cells) [^1Xiaoqiu Liu, et.al., “Fibrotic Lung Fibroblasts Show Blunted Inhibition by cAMP Due to Deficient cAMP Response Element-Binding Protein Phosphorylation”, Journal of Pharmacology and Experimental Therapeutics (2005), 315(2), 678-687; ^2Watts, K. L., et.al., “RhoA signaling modulates cyclin D1 expression in human lung fibroblasts; implications for idiopathic pulmonary fibrosis”, Respiratory Research (2006), 7(1), 88] were obtained from American Type Culture Collection (ATCC) and expanded in F12 medium supplemented with 15% Fetal Bovine Serum and Penicillin/Streptomycin.
Each compound was dissolved in DMSO as a 10 mM stock and used to prepare compound source plates. Serial dilution (1:2, 11-point dose-response curves from 10 μM to 1.87 nM) and compound transfer was performed using the ECHO 550 (Labcyte, Sunnyvale, Calif.) into 384-well clear bottom assay plates (Greiner Bio-One) with appropriate DMSO backfill for a final DMSO concentration of 0.1%. LL29 cells were plated at 1,500 cells/well in 80 μl/well F12 medium supplemented with 1% Fetal Bovine Serum. One hour after addition of the cells, TGF-β1 (Peprotech; 20 ng/mL) was added to the plates to induce fibrosis (ref. 1 and 2 above). Wells treated with TGF-β1 and containing DMSO were used as controls. Cells were incubated at 37° C. and 5% CO2 for 4 days. Following incubation for 4 days, SYTOX green nucleic acid stain (Life Technologies [Thermo Fisher Scientific]) was added to the wells at a final concentration of 1 uM and incubated at room temperature for 30 min. Cells were then fixed using 4% formaldehyde (Electron Microscopy Sciences), washed 3 times with PBS followed by blocking and permeabilization using 3% Bovine Serum Albumin (BSA; Sigma) and 0.3% Triton X-100 (Sigma) in PBS. Cells were then stained with antibody specific to α-smooth muscle actin (αSMA; Abcam) (ref. 1 and 2 above) in 3% Bovine Serum Albumin (BSA; Sigma) and 0.3% Triton X-100 (Sigma) in PBS, and incubated overnight at 4° C. Cells were then washed 3 times with PBS, followed by incubation with Alexa Flor-647 conjugated secondary antibody (Life Technologies [Thermo Fisher Scientific]) and DAPI at room temperature for 1 hour. Cells were then washed 3 times with PBS and plates were sealed for imaging. αSMA staining was imaged by excitation at 630 nm and emission at 665 nm and quantified using the Compartmental Analysis program on the CellInsight CX5 (Thermo Scientific). Dead or apoptotic cells were excluded from analysis based on positive SYTOX green staining. % of total cells positive for αSMA were counted in each well and normalized to the average of 11 wells treated with TGF-β1 on the same plate using Dotmatics' Studies Software. The normalized averages (fold change over untreated) of 3 replicate wells for each compound concentration were used to create dose-responses curves and EC50 values were calculated using non-linear regression curve fit in the Dotmatics' Studies Software. The EC50 values are reported.

Row | Structure (SMILES) | IC50 [1] | EC50 [2]
1 | O=C(Nc1cncc(-c2ccc3[nH]nc(-c4nc5cccnc5[nH]4)c3c2)c1)C1CCCCC1 [Compound 256, N-(5-(3-(3H-Imidazo[4,5-b]pyridin-2-yl)-1H-indazol-5-yl)pyridin-3-yl)cyclohexanecarboxamide] | 66.3 nM | 0.401 nM
2 | Cc1ccncc1-c1ccc2[nH]nc(-c3nc4c(-c5ccsc5)ccnc4[nH]3)c2c1 [Compound 265, 2-(5-(4-Methylpyridin-3-yl)-1H-indazol-3-yl)-7-(thiophen-3-yl)-3H-imidazo[4,5-b]pyridine] | 9.4 nM | 0.131 nM
3 | CC(C)C(=O)Nc1cncc(-c2ccc3[nH]nc(-c4nc5c(-c6ccsc6)ccnc5[nH]4)c3c2)c1 [Compound 269, N-(5-(3-(7-(Thiophen-3-yl)-3H-imidazo[4,5-b]pyridin-2-yl)-1H-indazol-5-yl)pyridin-3-yl)isobutyramide] | 5.1 nM | 9.99 nM
4 | O=C(Cc1ccccc1)Nc1cncc(-c2ccc3[nH]nc(-c4nc5c(-c6ccsc6)ccnc5[nH]4)c3c2)c1 [Compound 270, 2-Phenyl-N-(5-(3-(7-(thiophen-3-yl)-3H-imidazo[4,5-b]pyridin-2-yl)-1H-indazol-5-yl)pyridin-3-yl)acetamide] | 16.3 nM | 0.01 nM
5 | O=C(Nc1cncc(-c2ccc3[nH]nc(-c4nc5c(-c6ccsc6)ccnc5[nH]4)c3c2)c1)c1ccccc1 [Compound 271, N-(5-(3-(7-(Thiophen-3-yl)-3H-imidazo[4,5-b]pyridin-2-yl)-1H-indazol-5-yl)pyridin-3-yl)benzamide] | 8.4 nM | 0.068 nM
6 | O=C(Nc1cncc(-c2ccc3[nH]nc(-c4nc5c(-c6ccsc6)ccnc5[nH]4)c3c2)c1)C1CC1 [Compound 279, N-(5-(3-(7-(Thiophen-3-yl)-3H-imidazo[4,5-b]pyridin-2-yl)-1H-indazol-5-yl)pyridin-3-yl)cyclopropanecarboxamide] | 5.2 nM | 0.306 nM
7 | O=C(Nc1cncc(-c2ccc3[nH]nc(-c4nc5c(-c6ccsc6)ccnc5[nH]4)c3c2)c1)C1CCCC1 [Compound 281, N-(5-(3-(7-(Thiophen-3-yl)-3H-imidazo[4,5-b]pyridin-2-yl)-1H-indazol-5-yl)pyridin-3-yl)cyclopentanecarboxamide] | 9.8 nM | 0.359 nM
8 | c1ccc(CNCc2cncc(-c3ccc4[nH]nc(-c5nc6c(-c7ccsc7)ccnc6[nH]5)c4c3)c2)cc1 [Compound 283, N-Benzyl-1-(5-(3-(7-(thiophen-3-yl)-3H-imidazo[4,5-b]pyridin-2-yl)-1H-indazol-5-yl)pyridin-3-yl)methanamine] | 137 nM | 0.605 nM
9 | CCNCc1cncc(-c2ccc3[nH]nc(-c4nc5c(-c6ccoc6)ccnc5[nH]4)c3c2)c1 [Compound 292, N-((5-(3-(7-(Furan-3-yl)-3H-imidazo[4,5-b]pyridin-2-yl)-1H-indazol-5-yl)pyridin-3-yl)methyl)ethanamine] | 47.7 nM | 0.009 nM
10 | CC(C)C(=O)Nc1cncc(-c2ccc3[nH]nc(-c4nc5c(-c6ccoc6)ccnc5[nH]4)c3c2)c1 [Compound 295, N-(5-(3-(7-(Furan-3-yl)-3H-imidazo[4,5-b]pyridin-2-yl)-1H-indazol-5-yl)pyridin-3-yl)isobutyramide] | 5.1 nM | 0.405 nM
11 | CCCCC(=O)Nc1cncc(-c2ccc3[nH]nc(-c4nc5c(-c6ccoc6)ccnc5[nH]4)c3c2)c1 [Compound 304, N-(5-(3-(7-(Furan-3-yl)-3H-imidazo[4,5-b]pyridin-2-yl)-1H-indazol-5-yl)pyridin-3-yl)pentanamide] | 6 nM | 0.079 nM
12 | O=C(Nc1cncc(-c2ccc3[nH]nc(-c4nc5c(-c6ccoc6)ccnc5[nH]4)c3c2)c1)C1CCC1 [Compound 306, N-(5-(3-(7-(Furan-3-yl)-3H-imidazo[4,5-b]pyridin-2-yl)-1H-indazol-5-yl)pyridin-3-yl)cyclobutanecarboxamide] | 6.7 nM | 0.527 nM
